Source: patent US20120065126A1, “Pharmaceutical Compositions Containing Antifungal Peptides” (BASF SE, priority 2009, published 2012)

Experiments:
[1] = tested on: Malassezia furfur; assay: Incubation times between 5 minutes and 1 hour (CFU); format: cell-based
Method: The studies described hereinafter were conducted on the Malassezia furfur strain DSM 6170.
For this purpose, the concentrations 100 μM, 200 μM and 500 μM of P18 peptide and of zinc pyrithione as a control substance were used in the experiment. The experiments were conducted as follows:
The growth test was effected as follows: a shake culture containing M472 Pityrosporum medium was inoculated with M. furfur and incubated with shaking at 30° C. and 200 rpm overnight.
A 96-well microtiter plate was filled with 100 μl per well of M472 Pityrosporum medium and inoculated with M. furfur suspension from the overnight culture. The M. furfur suspension was adjusted at the start of the experiment to an optical density, measured at 600 nm, of 0.1.
The following growth was compared: • M. furfur suspension and addition of P18 peptide with a final concentration of 100 μM, plating after 5 minutes, 10 minutes, 20 minutes and 60 minutes • M. furfur suspension and addition of P18 peptide with a final concentration of 200 μM, plating after 5 minutes, 10 minutes, 20 minutes and 60 minutes • M. furfur suspension and addition of P18 peptide with a final concentration of 500 μM, plating after 5 minutes, 10 minutes, 20 minutes and 60 minutes • M. furfur suspension and addition of zinc pyrithione with a final concentration of 100 μM, plating after 5 minutes, 10 minutes, 20 minutes and 60 minutes • M. furfur suspension and addition of zinc pyrithione with a final concentration of 200 μM, plating after 5 minutes, 10 minutes, 20 minutes and 60 minutes • M. furfur suspension and addition of zinc pyrithione with a final concentration of 500 μM, plating after 5 minutes, 10 minutes, 20 minutes and 60 minutes
The microtiter plate was incubated with shaking at 30°.
After the incubation times specified, the colony forming units (CFU) were determined by streaking 50 μl of each of the suspensions and, after incubation over the course of 6 days, counting the colonies. The CFU was determined in order to rule out any influence of the biphasic medium, and also the growth form of M. furfur, on the optical density. The experiments were repeated independently of one another.

[2] = tested on: Staphylococcus epidermidis (DSM 1798); assay: Short-term effect (CFU); format: cell-based; conditions: for Inhibition in words: up to 60 minutes
Method: For this purpose, the procedure was as follows.
TSBY growth medium: Ready-made TSB medium (Becton, Dickinson and Company, Sparks, USA); 17 g of pancreatin-degraded casein 3 g of pancreatin-degraded soya 2.5 g of dextrose 5 g of sodium chloride 2.5 g of dipotassium phosphate 3 g of yeast extract (Becton, Dickinson and Company, Sparks, USA) make up to 1 liter, set pH 7
The growth test was effected as follows: 5 ml of TSBY medium were inoculated with S. epidermidis and incubated at 37° C. and 200 rpm overnight.
1.5 ml reaction vessels were each filled with 1 ml of TSBY medium and inoculated with S. epidermidis suspension from the overnight culture. The S. epidermidis suspension was adjusted at the start of the experiment to an optical density, measured at 600 nm, of 0.1. The concentration of the peptide solution in water or ZPT solution (zinc pyrithione, >96%, Sigma Aldrich) dissolved in DMSO was 2% (w/w).
The following growth was compared: • S. epidermidis suspension and addition of P18 peptide with a final concentration in the 1.5 ml reaction vessel of 50 ppm after 5 minutes, 10 minutes, 20 minutes and 60 minutes • S. epidermidis suspension and addition of P18 peptide with a final concentration in the 1.5 ml reaction vessel of 100 ppm after 5 minutes, 10 minutes, 20 minutes and 60 minutes • S. epidermidis suspension and addition of P18 peptide with a final concentration in the 1.5 ml reaction vessel of 200 ppm after 5 minutes, 10 minutes, 20 minutes and 60 minutes • S. epidermidis suspension and addition of P18 peptide with a final concentration in the 1.5 ml reaction vessel of 500 ppm after 5 minutes, 10 minutes, 20 minutes and 60 minutes • S. epidermidis suspension and addition of P18 peptide with a final concentration in the 1.5 ml reaction vessel of 1000 ppm after 5 minutes, 10 minutes, 20 minutes and 60 minutes • S. epidermidis suspension and addition of ZPT with a final concentration in the 1.5 ml reaction vessel of 50 ppm after 5 minutes, 10 minutes, 20 minutes and 60 minutes • S. epidermidis suspension and addition of ZPT with a final concentration in the 1.5 ml reaction vessel of 100 ppm after 5 minutes, 10 minutes, 20 minutes and 60 minutes • S. epidermidis suspension and addition of ZPT with a final concentration in the 1.5 ml reaction vessel of 200 ppm after 5 minutes, 10 minutes, 20 minutes and 60 minutes • S. epidermidis suspension and addition of ZPT with a final concentration in the 1.5 ml reaction vessel of 500 ppm after 5 minutes, 10 minutes, 20 minutes and 60 minutes • S. epidermidis suspension and addition of ZPT with a final concentration in the 1.5 ml reaction vessel of 1000 ppm after 5 minutes, 10 minutes, 20 minutes and 60 minutes
The 1.5 ml reaction vessels were incubated at room temperature.
After the incubation times specified, the colony forming units (CFU) were determined by streaking 1 μl of each of the suspensions diluted in 20 μl of TSBY medium and, after incubation for 2 days, counting the colonies.

Substance | Colony forming units after incubation time specified ([1]; 100 μM, 5 minutes) [CFU] | Colony forming units after incubation time specified ([1]; 100 μM, 10 minutes) [CFU] | Colony forming units after incubation time specified ([1]; 100 μM, 20 minutes) [CFU] | Colony forming units after incubation time specified ([1]; 100 μM, 60 minutes) [CFU] | Colony forming units after incubation time specified ([1]; 200 μM, 5 minutes) [CFU] | Colony forming units after incubation time specified ([1]; 200 μM, 10 minutes) [CFU] | Colony forming units after incubation time specified ([1]; 200 μM, 20 minutes) [CFU] | Colony forming units after incubation time specified ([1]; 200 μM, 60 minutes) [CFU] | Colony forming units after incubation time specified ([1]; 500 μM, 5 minutes) [CFU] | Colony forming units after incubation time specified ([1]; 500 μM, 10 minutes) [CFU] | Colony forming units after incubation time specified ([1]; 500 μM, 20 minutes) [CFU] | Colony forming units after incubation time specified ([1]; 500 μM, 60 minutes) [CFU] | Colony forming units after the incubation time specified ([2]; 50 ppm, 5 minutes) [CFU] | Colony forming units after the incubation time specified ([2]; 50 ppm, 10 minutes) [CFU] | Colony forming units after the incubation time specified ([2]; 50 ppm, 20 minutes) [CFU] | Colony forming units after the incubation time specified ([2]; 50 ppm, 60 minutes) [CFU] | Colony forming units after the incubation time specified ([2]; 100 ppm, 5 minutes) [CFU] | Colony forming units after the incubation time specified ([2]; 100 ppm, 10 minutes) [CFU] | Colony forming units after the incubation time specified ([2]; 100 ppm, 20 minutes) [CFU] | Colony forming units after the incubation time specified ([2]; 100 ppm, 60 minutes) [CFU] | other results
zinc pyrithione [ZPT] | >1000 | >1000 | >1000 | >1000 | >1000 | >1000 | >1000 | >1000 | >1000 | >1000 | >1000 | >1000 | 2000 ± 0 | 2000 ± 0 | 1033 ± 1368 | 522 ± 721 | 2000 ± 0 | 2000 ± 0 | 1200 ± 1131 | 707 ± 698 | Inhibition in words ([2]; 50 ppm and 100 ppm): low inhibition; Colony forming units after the incubation time specified ([2]; 200 ppm, 5 minutes): 2000 ± 0 CFU; Colony forming units after the incubation time specified ([2]; 200 ppm, 10 minutes): 2000 ± 0 CFU; Colony forming units after the incubation time specified ([2]; 200 ppm, 20 minutes): 2000 ± 0 CFU; Colony forming units after the incubation time specified ([2]; 200 ppm, 60 minutes): 2000 ± 0 CFU; Colony forming units after the incubation time specified ([2]; 500 ppm, 5 minutes): 2000 ± 0 CFU; Colony forming units after the incubation time specified ([2]; 500 ppm, 10 minutes): 2000 ± 0 CFU; Colony forming units after the incubation time specified ([2]; 500 ppm, 20 minutes): 2000 ± 0 CFU; Colony forming units after the incubation time specified ([2]; 500 ppm, 60 minutes): 2000 ± 0 CFU; Colony forming units after the incubation time specified ([2]; 1000 ppm, 5 minutes): 2000 ± 0 CFU; Colony forming units after the incubation time specified ([2]; 1000 ppm, 10 minutes): 2000 ± 0 CFU; Colony forming units after the incubation time specified ([2]; 1000 ppm, 20 minutes): 2000 ± 0 CFU; Colony forming units after the incubation time specified ([2]; 1000 ppm, 60 minutes): 2000 ± 0 CFU; Inhibition in words ([2]; higher concentrations (200-1000 ppm)): no significant inhibition
H-KWKLFKKIPKFLHLAKKF-NH2 [P18, H-KWKLFKKIPKFLHLAKKF-NH2] | >1000 | >1000 | 604 | 149 ± 60 | >1000 | >1000 | >1000 | 52 ± 16 | >1000 | 398 ± 290 | 26 ± 6 | 1 ± 1 | 221 ± 5 | 19 ± 3 | 4.75 ± 0.4 | 0.75 ± 0.4 | 171 ± 219 | 6.5 ± 4.2 | 0.5 ± 0 | 0 ± 0 | Colony forming units after the incubation time specified ([2]; 200 ppm, 5 minutes): 14 ± 18 CFU; Colony forming units after the incubation time specified ([2]; 200 ppm, 10 minutes): 5.75 ± 4.6 CFU; Colony forming units after the incubation time specified ([2]; 200 ppm, 20 minutes): 0.25 ± 0.4 CFU; Colony forming units after the incubation time specified ([2]; 200 ppm, 60 minutes): 0 ± 0 CFU; Colony forming units after the incubation time specified ([2]; 500 ppm, 5 minutes): 19 ± 22 CFU; Colony forming units after the incubation time specified ([2]; 500 ppm, 10 minutes): 0.25 ± 0.4 CFU; Colony forming units after the incubation time specified ([2]; 500 ppm, 20 minutes): 0.75 ± 1.1 CFU; Colony forming units after the incubation time specified ([2]; 500 ppm, 60 minutes): 0 ± 0 CFU; Colony forming units after the incubation time specified ([2]; 1000 ppm, 5 minutes): 1.25 ± 0.4 CFU; Colony forming units after the incubation time specified ([2]; 1000 ppm, 10 minutes): 0 ± 0 CFU; Colony forming units after the incubation time specified ([2]; 1000 ppm, 20 minutes): 0 ± 0 CFU; Colony forming units after the incubation time specified ([2]; 1000 ppm, 60 minutes): 0 ± 0 CFU
